Laboratory results as given in patent US20050009732A1, “Method of treatment and agents useful for same” (Medvet Science Pty Ltd., priority 2003, published 2005).
Starred links: 1 amine or outer side, 2 acyl side, 3 side chain; linkers in the order of their positions; H or OH if unused. Positions of bridges follow the written chain, without caps; N, C: chain ends. Non-standard residues stand in square brackets, D forms with d. Residues, ends and D or L forms follow the SMILES beside them. Chains are numbered I, II in the order given. Actinocin(9to1) = Cc1c2oc3c(C)ccc(C(=O)[*:1])c3nc-2c(C(=O)[*:2])c(N)c1=O; NMeV = CN[C@H](C(=O)O)C(C)C; Sar = CNCC(=O)O

Assays:
Type in all cases: cell-based, human
[1] = tested on: intracellular Ca2+ mobilization in MCF-7 cells; experiment: Measurement of [Ca2+]i in Fluo-3 loaded MCF-7 cells; conditions: for effect on E2-induced rise of [Ca2+]i: pretreatment then E2 (DMS 10 μM 30 min; ICI 10 μM; BHQ 100 nM; EGTA 2 mM; 2-APB 75 μM); for effect on [Ca2+]i when added alone: S1P 100 nM, E2-BSA 1 μM
Description: The fluorescence of the cells was monitored at an excitation wavelength of 490 nm and an emission wavelength of 525 nm. Each recording was calibrated by determining the maximal uptake of calcium (Fmax) in the presence of 0.1% Triton X as well as the level of autofluorescence (Fmin), after quenching Fluo-3/AM fluorescence with 1 mM Mn2^+.

MCF-7 cells [2] = experiment: Focus formation assay in MCF-7 cells; conditions: 10 nM E2, 10-day culture
Description: MCF-7 cells were seeded into 24-well plastic tissue culture plates at a density of 1×10^5 cells/ml/well, and maintained in phenol-red free media containing 10% FCS until the cells reached confluent. The cells were then refed at 24 h before first treatment with or without 10 nM E2 and then every 2-3 days thereafter with 1% FCS medium. After 5, 10 and 14 days the cultures were photographed and number of foci were counted. For colony assay, cells (1×10^4) suspended in 2 ml of 0.36% agar (Becton Dickinson, Sparks, MD) with phenol-red free growth medium were added on a base layer of 0.72% agar containing culture medium as described previously (Xia, P., Gamble, J. R., Wang, L., Pitson, S. M., Moretti, P. A., Wattenberg, B. W., D'andrea, R. J., and Vadas, M. A. (2000) Curr. Biol., 10: 1527-1530). After 14 days of incubation, the colonies were stained with MTT and counted. All experiments were done at least three times using triplicates per experimental point. Average was assessed by counting the number of colonies under low magnification (×20) at four points on each well.

MCF-7 cells [3] = experiment: Cell growth assay (MTS) in MCF-7 cells; conditions: 10 nM E2, in the absence of serum
Description: To assess cell proliferation, we used the CellTiter 96 AQueous proliferation assay (Promega Corp.) that is based on metabolic conversion of a tetrazolium compound MTS to a colored product by living cells as described in the manufacturer's protocols. Cells (4×10^3 cell/well) were seeded in 4 to 6 replicates into 96-well plates and incubated at 37° C. in 5% CO2 with or without E2 (10 nM) in phenol-red free media for a desired time period. The medium was changed every 2-3 days. The absorbance intensity of the MTS product is directly proportional to the number of viable cells in culture when cell number is between 2000 and 200 000, otherwise the exponential dependence was determined. Total cell numbers were calculated based on calibration curves.

[4] = tested on: SK activity in MDA-MB-231 cells; experiment: SK activity assay in MDA-MB-231 cells; conditions: 10 nM E2, 15 min or 6 hours
Description: (§1) Briefly, after desired treatments the cells were washed with ice-cold PBS, scraped from the culture dishes and homogenized in lysis buffer containing 20 mM Tris (pH 7.4), 20% glycerol, 1 mM DTT, 1 mM EDTA, 10 μM MgCl2, 1 mM Na3VO4, 15 mM NaF, 10 μg/ml leupeptin and aprotinin, 1 mM PMSF and 0.5 mM 4-deoxypyridoxine. After centrifugation at 13,000×g for 30 min, SK activity was measured by incubating the cytosolic fraction with 5 μM sphingosine dissolved in 0.1% Triton X-100 and [γ^32P]ATP (1 mM, 0.5 mCi/ml) for 30 min at 37° C. as described previously (Pitson et al, 2000, supra; Xia, P., 1998, supra). The enzyme activity was normalized by total protein concentration of each sample.

[5] = tested on: Erk1/2 phosphorylation in MCF-7 cells; experiment: Erk1/2 phosphorylation by Western blotting in MCF-7 cells
Description: Cells were harvested and lysed by sonication in lysis buffer containing 50 mM Tris/HCl (pH 7.4), 10% glycerol, 0.5% Triton-X-100, 150 mM NaCl, 1 mM dithiothreitol, 2 mM Na3VO4, 10 mM NaF, 1 mM EDTA and protease inhibitors (Complete; Roche Molecular Biochemicals). Protein concentrations of the cell lysates were determined with a Bio-Rad Dc protein assay kit (Bio-Rad Laboratories, CA). Aliquots of cell lysates containing 30-50 μg of proteins were resolved by 12% SDS-PAGE and transferred to Hybond-P membranes (Amersham Biosciences, Inc.). The membranes were then probed with appropriate antibodies according to standard method as described previously (Pitson, S. M., 2000, supra). The immunocomplexes were detected with an enhanced chemiluminescence PLUS kit (Amersham Pharmacia Biosciences) and by using Typhoon 9410 Variable Mode Imager (Amersham Pharmacia Biotechnologies).

[6] = tested on: SK activity in MCF-7 cells; experiment: SK activity assay in MCF-7 cells; conditions: for effect on E2-mediated SK activation: pretreatment (ICI 10 μM 1 h; PTX 50 ng/ml 16 h) then 10 nM E2
Description: as §1

For 4-hydroxytamoxifen [OH-Tam], the “effect on E2-induced rise of [Ca2+]i” value [1] was “not prevented”.

17β-estrodiol [E2] was tested, and the foci formation (MCF-7 cells [2]) was “able to form solid cell foci”, the “effect on cell growth” value (MCF-7 cells [3]) was “stimulated cell growth” and the SK activity [4] was “No increased activity”. The “effect on Erk 1/2 activity” value ([5]; 10 nM E2) was “significant increase”, the “time of maximal Erk 1/2 activity” value ([5]; 10 nM E2, basal levels by 60 min) was no more than 15 min and the “time to maximal level of [Ca2+]i” value ([1]; E2 1 nM) was 30 ± 10 s. The “SK activity after additional dose of E2” value ([6]; MCF-7 cells pretreated with E2 for 16 h, pulsed with additional 10 nM E2) was “additive increase”, the “prolonged effect on SK activity” value ([6]; MCF-7 cells, 10 nM E2, after 6 hours, remained more than 24 hours) was “significant increase” and the “maximum SK activity” value ([6]; MCF-7 cells, 10 nM E2, within 15 min) was 240±25 % of basal. The “concentration at which the E2-induced SK activity reaches a maximum” value ([6]; MCF-7 cells, increasing doses, 15 min) was 1 µM.

17β-estrodiol-BSA [E2-BSA] was tested, and the “effect on [Ca2+]i when added alone” value [1] was “same extent as E2”.

For NCCOB(c1ccccc1)c1ccccc1 [2-APB, 2-Aminoethoxydiphenyl borate], the “effect on E2-induced rise of [Ca2+]i” value [1] was “unable to effectively abolish”.

CC(C)(C)c1cc(O)ccc1O [BHQ, tert-butylhydroquinone] was tested, and the “effect on E2-induced rise of [Ca2+]i” value [1] was “strongly reduced”.

With O=C(O)CN(CCOCCOCCN(CC(=O)O)CC(=O)O)CC(=O)O [EGTA] the “effect on E2-induced rise of [Ca2+]i” value [1] was “slightly decreased”.

For C[C@]12CC[C@@H]3c4ccc(O)cc4C[C@@H](CCCCCCCCC[S+]([O-])CCCC(F)(F)C(F)(F)F)[C@H]3[C@@H]1CC[C@@H]2O (stereo partly drawn) [ICI 182,780], the “effect on E2-induced rise of [Ca2+]i” value [1] was “not prevented” and the “effect on E2-mediated SK activation” value ([6]; MCF-7 cells) was “no influence”.

In the case of COc1cccc(-c2cc(=O)c3ccccc3o2)c1N [PD098095], the “effect on E2-promoted phosphorylation of Erk1/2” value ([5]; 100 μM pretreatment 30 min, 10 nM E2) is reported as “blocked”.

In the case of CCCCCCCCCCCCCC(=O)O[C@@H]1[C@@H](C)[C@@]2(O)[C@@H](C=C(CO)C[C@]3(O)C(=O)C(C)=C[C@@H]23)[C@@H]2C(C)(C)[C@]12OC(C)=O [PMA, phorbol 12-myristate 13-acetate], the “increase in SK activity over basal levels” value ([6]; PMA 100 ng/ml, 30 min, SK and empty-vector transfected MCF-7 cells) is reported as “approximately 2 fold”.

In the case of CCCCCCCCCCCCC/C=C/[C@@H](O)[C@@H](N)COP(=O)(O)O [S1P, sphingosine-1-phosphate], the “effect on [Ca2+]i when added alone” value [1] is reported as “resulted in an increase”.

With CC/C(=C(\c1ccccc1)c1ccc(OCCN(C)C)cc1)c1ccccc1 [Tamoxifen] the “effect on E2-mediated SK activation” value ([6]; MCF-7 cells) was “no influence”.

For Cc1c2oc3c(C)ccc(C(=O)N[C@@H]4C(=O)N[C@H](C(C)C)C(=O)N5CCC[C@H]5C(=O)N(C)CC(=O)N(C)[C@@H](C(C)C)C(=O)O[C@@H]4C)c3nc-2c(C(=O)N[C@@H]2C(=O)N[C@H](C(C)C)C(=O)N3CCC[C@H]3C(=O)N(C)CC(=O)N(C)[C@@H](C(C)C)C(=O)O[C@@H]2C)c(N)c1=O [actinomycin D] (I: T[dV]P[Sar][NMeV] / II: T[dV]P[Sar][NMeV]; ester I:1-I:C, II:1-II:C; linker I:N-II:N via Actinocin(9to1)), the “effect on first peak of E2-induced SK activity” value ([6]; MCF-7 cells, 1 μM actinomycin D pretreatment 4 h, 10 nM E2) was “no overt effect” and the “effect on delayed E2-induced activation of SK” value ([6]; MCF-7 cells, 1 μM actinomycin D, 10 nM E2 prolonged time course) was “abrogated”.

In the case of pertussis toxin, the “effect on E2-mediated SK activation” value ([6]; MCF-7 cells) is reported as “strongly abrogated”.
